Test results from patent US8592421B2, “Cyclic bioisosters of purine system derivatives and a pharmaceutical composition based thereon” (priority 2003, dated 2013).

Legend:
thrombocytes = assay: ADP-induced aggregation of thrombocytes after intravenous administration (in vivo); set-up: species or system rabbit
Procedure: The experiments were carried out on male rabbits of the “Chinchilla” breed having a mass of 2.7±0.3 kg. 18-24 hours prior to the experiment they were deprived of feed while preserving free access to water.
To obtain plasma enriched with thrombocytes, blood was taken from a cut of a marginal vein of the rabbit ear, the sample was stabilized with 3.8% of sodium citrate solution in a ratio of 9:1 and centrifuged at 200 g (1000 rev/min) for 10 minutes. The top supernatant layer enriched with thrombocytes was transferred by an automatic dropper into a silicone test tube and kept at 37° C. The plasma enriched with thrombocytes contained, on the average, […]. If this content exceeded the specified 3×10^8 blood platelets in 1 liter, this sample was diluted to the necessary concentration with plasma deprived of thrombocytes, which was obtained by centrifuging blood at 650 g during 10 minutes.
The measurements of the optical density of the samples were made on two-channel aggregometer of the “Chronolog” Company (USA). A flask containing 490 mkl of plasma rich with thrombocytes was placed in a device, into which a magnetic agitator covered with Teflon was lowered. The index of maximum amplitude of aggregation (MA) in percent of a fall of the plasma optical density under effect of the aggregation inductor was recorded. The control index MA of plasma was compared with the MA of plasma incubated for 3 minutes with different concentrations of the compounds: from 10^−3 to 10^−7 in vitro experiments or with plasma obtained 15, 30, 60 and 120 minutes after intravenous administration of different doses of the compounds in vivo experiments.
The process of aggregation of thrombocytes was recorded with the help of a computer; on the monitor screen the there were depicted curves reflecting changes of the optical density of the plasma enriched which was taken as a standard 100% compared to the optical density of the non-thrombocyte plasma taken for 0% content of thrombocytes.
The antiaggregative capability of compounds 2, 15, 21, 37, according to the invention was tested in experiments in vivo. Introduced to the test animals intravenously were an aggregation inductor ADP at a concentration of 10^−5 M was and then the compounds according to the invention. The doses of the compounds were in a range from 15 to 60 mg/kg.
For leveling the different effects of the compounds in different days due the ambient temperature, humidity and other parameters, 2 animals of each series were taken for experiments every day. Under “series” there is understood a group of 6 animals used for studying one of the doses of the compounds.
The blood for obtaining plasma enriched with thrombocytes was taken from marginal vein of the rabbit ear: in the control group—directly before introducing the tested compounds; in investigated groups—15 minutes after introducing these compounds and then after 30, 60, 120 minutes and so on up to the moment when the effect of suppression of aggregation disappeared.
The quantity of thrombocytes was counted before the experiment and at the end thereof in each plasma sample.

[1] = Morphine abstinence model: nitrites/nitrates NOX− in blood plasma, liver and brain; assay type: in vivo, rats Wistar; conditions: 20.0 mg/kg intramuscularly; for Nitrites in liver: control 0.260 ± 0.023; for Nitrites in brain: Cortex of cerebrum: control 4.63 ± 0.29; for Nitrites in brain: Mesencephalon: control 5.66 ± 0.19; for Nitrites in brain: Hypothalamus: control 6.57 ± 0.50; for Nitrites in blood plasma: control 18.30 ± 2.14
Procedure: The experiments were carried out on rats in series of 7 animals on each compound according to the invention. Non-morphinized animal with not administered with compounds according to the invention were used as a control group. […] Then the rats were decapitated, the blood from somnolent arteries was collected in test tubes with solution EDTA as an anticoagulant, centrifuged at 1500 g for 15 minutes at 4° C.
To estimate the intensity of metabolism of nitrogen oxide in rats, quantitative determination of stable metabolites of nitrogen oxide—nitrites and nitrates NOX^− in the blood plasma, supernatanates of the liver and thymus gland, a study was conducted by a spectrometric method, and in the brain supernatanates by a […] method.
(§1) The spectrometric method is based the reaction of nitrites with the Griss reagent (a mixture of 2% solution of sulfanilamide and 0.2% N-(1-naphthyl)ethylene diamine. At the first step the nitrite reacts with sulfanilamide with formation of diazonium salt, and then with the second component to form azo dye with an adsorption maximum at 540 nm. For reduction of nitrates into nitrites, a fermentative method was used with bacterial reductase nitrate (Grisham M. B. et al., 1995). The samples of plasma and supernathant of the liver deproteinizated at 100° C. for 5 minutes incubated for 30 minutes at 37° C. in 50.0 mM of HEPES pH 7.4 in the presence of 0.2 unit/ml of Aspergillus reductase nitrate, 5.0 mkM of FAD and 0.1 mM of NAD-Ph. At the end of the reaction lactate dehydrogenase and pyruvate were added for isolation of NAD-Ph interfering with the Griss reaction. Then the Griss reagent was added and after 10-minute incubation the light absorption of the samples was measured at 540 nm. To amount of NOX^− was calculated using sodium nitrate as a standard.
The fluorometric method is based on calculation of the nitrite level by the intensity fluorescence of 2,3-diaminonaphthotriazole, a product of reaction of 2,3-diaminonaphthalene (DAN) and nitrite in an acidic medium (Misko T. R., Schilling R. J., Salvemini D. et al. “A fluorometric assay for the measurement of nitrite of biological samples”. Anal. Biochem., 1993, v. 214, p. 11-16). The brain supernatants deproteinizated at 100° C. were placed in a nitrite regenerating system containing 0.125 unit/ml of nitrate reductases, 25 mkM NADPh and 25 mkM FAD prepared in a 20-mM Tris-HCl buffer with pH 7.6 and incubated for 30 minutes at 37° C. The lactate dehydrogenase/pyruvate system was used for oxidation of the NADPh. Then 316 mkM of the DAN solution in 0.62 M of hydrochloric acids were added and the mixture was incubated for 10 minutes in darkness.
280 mM of NaOH were added for stabilization of the fluorescence of the formed 2,3-diaminonaphthotriazole. The fluorescence intensity was measured in the spectrofluorimeter Hitachi F-3000 at a wavelength of excitation of 365 nm and an emission of 405 nm. The concentration of NOX^− in the brain was calculated by means of a standard solution of sodium nitrate.

[2] = Morphine abstinence model: thymus condition (mass, nitrites); assay type: in vivo, rats; conditions: for Nitrites in thymus supernatant: control 0.331 ± 0.041; for Thymus mass: control 230 ± 14
Text: as §1
The effect of the compounds according to the invention on the condition of the thymus of the rats was also investigated: a control group, an experimental group of morphinized animals and an experimental group of animals were first morphinized and then injected with the compounds according to the invention. The experiment was carried out similarly to that described above.

[3] = 15.0 mg/kg intravenously, after 15 minutes, control 50.1 ± 1.7
[4] = 15.0 mg/kg intravenously, after 30 minutes, control 50.1 ± 1.7
[5] = 15.0 mg/kg intravenously, after 60 minutes, control 50.1 ± 1.7
[6] = 15.0 mg/kg intravenously, after 120 minutes, control 50.1 ± 1.7
[7] = 30.0 mg/kg intravenously, after 15 minutes, control 61.0 ± 1.3
[8] = 30.0 mg/kg intravenously, after 30 minutes, control 61.0 ± 1.3
[9] = 30.0 mg/kg intravenously, after 60 minutes, control 61.0 ± 1.3
[10] = 30.0 mg/kg intravenously, after 120 minutes, control 61.0 ± 1.3
[11] = 60.0 mg/kg intravenously, after 15 minutes, control 48.6 ± 1.3
[12] = 60.0 mg/kg intravenously, after 30 minutes, control 48.6 ± 1.3
[13] = 60.0 mg/kg intravenously, after 60 minutes, control 48.6 ± 1.3
[14] = 60.0 mg/kg intravenously, after 120 minutes, control 48.6 ± 1.3
[15] = Administration of morphine and compound

SMILES | MA - drop of optical density (thrombocytes; [3]) | MA - drop of optical density (thrombocytes; [4]) | MA - drop of optical density (thrombocytes; [5]) | MA - drop of optical density (thrombocytes; [6]) | MA - drop of optical density (thrombocytes; [7]) | MA - drop of optical density (thrombocytes; [8]) | MA - drop of optical density (thrombocytes; [9]) | MA - drop of optical density (thrombocytes; [10]) | MA - drop of optical density (thrombocytes; [11]) | MA - drop of optical density (thrombocytes; [12]) | MA - drop of optical density (thrombocytes; [13]) | MA - drop of optical density (thrombocytes; [14]) | Nitrites in liver ([1]; Control + Compound) | Nitrites in brain: Cortex of cerebrum ([1]; Control + Compound) | Nitrites in brain: Mesencephalon ([1]; Control + Compound) | Nitrites in brain: Hypothalamus ([1]; Control + Compound) | Nitrites in blood plasma ([1]; Control + Compound) | Nitrites in liver ([1]; Control + Morphine + compound) | Nitrites in brain: Cortex of cerebrum ([1]; Control + Morphine + compound) | Nitrites in brain: Mesencephalon ([1]; Control + Morphine + compound) | also measured
Nc1ccnc2c(=O)n([C@@H]3O[C@H](CO)[C@@H](O)[C@H]3O)[nH]c(=O)c12 [Compound 2, 4-amino-7-(β-D-ribofuranosile)pyrido[2,3-d]-6H-pyridazine-5,8-dione] | 44.2 ± 2.0 % | 42.2 ± 1.6 % | 46.9 ± 1.7 % | 49.2 ± 2.0% | 45.3 ± 2.0 % | 43.7 ± 1.7 % | 40.1 ± 2.2 % | 59.7 ± 2.2% | 45.2 ± 1.2 % | 43.6 ± 2.0 % | 47.8 ± 1.5% | 48.0 ± 1.2% | – | – | – | – | – | – | – | – | –
O=c1[nH][nH]c(=O)c2ncccc12.[Li] [Compound 6, lithium salt of pyrido[2,3-d]-6H-pyridazine-5,8-dione] | – | – | – | – | – | – | – | – | – | – | – | – | 0.245 ± 0.010 nmol/mg of protein | 4.59 ± 0.44 nmol/mg of protein | 7.01 ± 0.82 nmol/mg of protein | 6.94 ± 0.67 nmol/mg of protein | 15.83 ± 1.21 mkmol/ml | 0.294 ± 0.02 nmol/mg of protein | 5.12 ± 0.18 nmol/mg of protein | 5.76 ± 0.94 nmol/mg of protein | Nitrites in brain: Hypothalamus ([1]; Control + Morphine + compound): 6.72 ± 0.94 nmol/mg of protein; Nitrites in blood plasma ([1]; Control + Morphine + compound): 15.86 ± 1.20 mkmol/ml; Nitrites in thymus supernatant ([2]; Administration of compounds): 0.424 ± 0.04 nmol/mg of protein; Thymus mass ([2]; Administration of compounds): 242 ± 17 mg; Nitrites in thymus supernatant [2, 15]: 0.419 ± 0.02 nmol/mg of protein; Thymus mass [2, 15]: 207 ± 14 mg
Nc1cnc2c(=O)n([C@@H]3O[C@H](CO)[C@@H](O)[C@H]3O)[nH]c(=O)c2n1.[Na] [Compound 21, sodium salt of 3-amino-7-(β-D-ribofuranosile)pyrazine[2,3-d]-6H-pyridazine-5,8-dione] | 43.5 ± 1.7 % | 43.3 ± 1.7 % | 46.7 ± 1.5 % | 49.1 ± 1.7% | 46.7 ± 1.9 % | 45.4 ± 1.8 % | 45.0 ± 1.9% | 60.3 ± 2.1% | 45.1 ± 0.9 % | 43.2 ± 2.0 % | 47.3 ± 1.6% | 48.3 ± 1.5% | – | – | – | – | – | – | – | – | –
O=c1[nH][nH]c(=O)c2nccnc12.[Li] [Compound 25, lithium salt of pyrazine[2,3-d]-6H-pyridazine-5,8-dione] | – | – | – | – | – | – | – | – | – | – | – | – | 0.307 ± 0.012 nmol/mg of protein | 4.47 ± 0.43 nmol/mg of protein | 6.98 ± 1.02 nmol/mg of protein | 6.87 ± 0.80 nmol/mg of protein | 17.10 ± 2.05 mkmol/ml | 0.287 ± 0.01 nmol/mg of protein | 4.91 ± 0.32 nmol/mg of protein | 5.91 ± 0.74 nmol/mg of protein | Nitrites in brain: Hypothalamus ([1]; Control + Morphine + compound): 6.67 ± 0.79 nmol/mg of protein; Nitrites in blood plasma ([1]; Control + Morphine + compound): 16.78 ± 2.11 mkmol/ml; Nitrites in thymus supernatant ([2]; Administration of compounds): 0.417 ± 0.02 nmol/mg of protein; Thymus mass ([2]; Administration of compounds): 254 ± 14 mg; Nitrites in thymus supernatant [2, 15]: 0.396 ± 0.02 nmol/mg of protein; Thymus mass [2, 15]: 218 ± 17 mg
